Molecular target: Endothelial lipase (EL) (Homo sapiens (Human), UniProt Q9Y5X9)
Experiment: Endothelial lipase (EL) enzymatic assay with fluorescent substrate A10070 in DMPG vesicles
Type: biochemical
How it was run: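 EL from conditioned medium of HT-1080 cells engineered to overexpress endogenous EL; HL partially purified from conditioned medium of HL-overexpressing COS cells. Enzyme preincubated with compound 30 min at 37° C in 50 mM HEPES pH 8.0, 50 mM NaCl, 1 mM CaCl2; DMPG vesicles carrying FRET substrate (0.11 mole fraction) then added.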

Endothelial lipase (EL), sequence (Q9Y5X9 21-500): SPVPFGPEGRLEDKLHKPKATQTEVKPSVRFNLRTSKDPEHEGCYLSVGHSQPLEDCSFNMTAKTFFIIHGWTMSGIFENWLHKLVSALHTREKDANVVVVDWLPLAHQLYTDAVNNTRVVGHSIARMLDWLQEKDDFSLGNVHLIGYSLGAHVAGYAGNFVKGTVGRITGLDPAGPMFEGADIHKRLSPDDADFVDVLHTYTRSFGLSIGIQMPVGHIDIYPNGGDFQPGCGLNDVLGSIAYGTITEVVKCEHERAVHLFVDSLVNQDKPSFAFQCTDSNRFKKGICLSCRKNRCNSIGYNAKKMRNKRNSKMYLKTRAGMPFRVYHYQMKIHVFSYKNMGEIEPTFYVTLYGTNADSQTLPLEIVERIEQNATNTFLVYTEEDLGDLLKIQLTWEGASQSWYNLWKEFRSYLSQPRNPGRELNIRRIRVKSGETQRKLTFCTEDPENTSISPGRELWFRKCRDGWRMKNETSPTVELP

Row | SMILES | IC50 [nM]
1 | CC(C)S(=O)(=O)C(C(=O)NCC(=O)NC1CC1)c1nc2cc(C(F)(F)F)c(-c3ccc(F)nc3)cc2s1 (stereo not shown) [Example 170, N-[(cyclopropyl-carbamoyl)methyl]-2-[6-(6-fluoropyridin-3-yl)-5-(trifluoromethyl)-1,3-benzothiazol-2-yl]-2-(propane-2-sulfonyl) acetamide] | 27
2 | CC(=O)Nc1cccc(-c2cc3nc(C(C(=O)NCC(=O)NC4CC4)S(C)(=O)=O)sc3cc2F)c1 (stereo not shown) [Example 115, N-[(cyclopropyl-carbamoyl)methyl]-2-[5-(3-acetamidophenyl)-6-fluoro-1,3-benzothiazol-2-yl]-2-methanesulfonyl-acetamide] | 12
3 | COCCS(=O)(=O)C(C(=O)NCC(=O)NC1CC1)c1nc2cc(Cl)c(-c3ccc(NC(=O)OC)cc3)cc2s1 (stereo not shown) [Example 94, methyl N-{4-[5-chloro-2-({[(cyclopropyl-carbamoyl)methyl]carbamoyl}(2-methoxyethane-sulfonyl)methyl)-1,3-benzothiazol-6-yl]phenyl} carbamate] | 2
4 | CS(=O)(=O)C(C(=O)NCC(=O)NC1CC1)c1nc2cc(F)c(-c3ccc(C#N)nc3)cc2s1 (stereo not shown) [Example 199, 2-[6-(6-cyanopyridin-3-yl)-5-fluoro-1,3-benzothiazol-2-yl]-N-[(cyclopropyl-carbamoyl)methyl]-2-methanesulfonyl-acetamide] | 24
5 | Cc1cc(-c2cc3sc(C(C(=O)NCC(=O)NC4CC4)S(=O)(=O)C(C)C)nc3cc2C)ccn1 (stereo not shown) [Example 255, N-[(cyclopropyl-carbamoyl)methyl]-2-[5-methyl-6-(2-methylpyridin-4-yl)-1,3-benzothiazol-2-yl]-2-(propane-2-sulfonyl) acetamide] | 5
6 | CC(C)S(=O)(=O)C(C(=O)NCC(=O)NC1CC1)c1nc2cc(F)c(-c3ccc(C#N)nc3)cc2s1 (stereo not shown) [Example 249, 2-[6-(6-cyanopyridin-3-yl)-5-fluoro-1,3-benzothiazol-2-yl]-N-[(cyclopropyl-carbamoyl)methyl]-2-(propane-2-sulfonyl)acetamide] | 29
7 | CC(C)S(=O)(=O)C(C(=O)NCC(=O)NC1CC1)c1nc2cc(F)c(-c3ccc(C(=O)Nc4nccs4)cc3)cc2s1 (stereo not shown) [Example 247, 4-[2-({[(cyclopropyl-carbamoyl)methyl]carbamoyl} (propane-2-sulfonyl)methyl)-5-fluoro-1,3-benzothiazol-6-yl]-N-(1,3-thiazol-2-yl) benzamide] | 11
8 | COCCNC(=O)c1ccc(-c2cc3sc(C(C(=O)NCC(=O)NC4CC4)S(=O)(=O)CCOC)nc3cc2Cl)cc1 (stereo not shown) [Example 99, 4-[5-chloro-2-({[(cyclopropyl-carbamoyl)methyl]carbamoyl}(2-methoxyethane-sulfonyl)methyl)-1,3-benzothiazol-6-yl]-N-(2-methoxyethyl) benzamide] | 8
9 | O=C(CNC(=O)C(c1nc2cc(-c3ccc(NC(=O)OCc4ccccc4)cc3)c(F)cc2s1)S(=O)(=O)C1CC1)NC1CC1 (stereo not shown) [Example 11, benzyl N-(4-{2-[(cyclopropane-sulfonyl) ({[(cyclopropyl-carbamoyl)methyl]carbamoyl})methyl]6-fluoro-1,3-benzothiazol-5-yl}phenyl) carbamate] | 1
10 | CC(C)n1cc(-c2cc3sc(C(C(=O)NCC(=O)NC4CC4)S(=O)(=O)C(C)C)nc3cc2F)ccc1=O (stereo not shown) [Example 22, N-[(cyclopropyl-carbamoyl)methyl]-2-{5-fluoro-6-[6-oxo-1-(propan-2-yl)-1,6-dihydropyridin-3-yl]-1,3-benzothiazol-2-yl}-2-(propane-2-sulfonyl) acetamide] | 37
11 | Cc1cc2nc(C(C(=O)NCC(=O)NC3CC3)S(=O)(=O)C(C)C)sc2cc1-c1ccc2[nH]c(=O)ccc2c1 (stereo not shown) [Example 204, N-[(cyclopropyl-carbamoyl)methyl]-2-[5-methyl-6-(2-oxo-1,2-dihydroquinolin-6-yl)-1,3-benzothiazol-2-yl]-2-(propane-2-sulfonyl) acetamide] | 2
12 | CC(=O)Nc1cccc(-c2cc3sc(C(C(=O)NCC(=O)NC4CC4)S(C)(=O)=O)nc3cc2F)c1 (stereo not shown) [Example 116, N-[(cyclopropyl-carbamoyl)methyl]-2-[6-(3-acetamidophenyl)-5-fluoro-1,3-benzothiazol-2-yl]-2-methanesulfonyl-acetamide] | 17
13 | COC(=O)N(C)c1ccc(-c2cc3sc(C(C(=O)NCC(=O)NC4CC4)S(=O)(=O)CCC(F)(F)F)nc3cc2F)cc1 (stereo not shown) [Example 33, methyl N-{4-[2-({[(cyclopropyl-carbamoyl)methyl]carbamoyl}(3,3,3-trifluoropropane-sulfonyl)methyl)-5-fluoro-1,3-benzothiazol-6-yl]phenyl}-N-methylcarbamate] | 4

The remaining lines, values ahead:

Row | IC50 [nM] | SMILES
14 | 59 | COCCS(=O)(=O)C(C(=O)NCC(=O)NCC1CC1)c1nc2cc(-c3ccc(F)nc3)ccc2s1 (stereo not shown) [Example 389, N-{[(cyclopropyl-methyl)carbamoyl]methyl}-2-[5-(6-fluoropyridin-3-yl)-1,3-benzothiazol-2-yl]-2-(2-methoxyethane-sulfonyl)acetamide]
15 | 34 | COCCS(=O)(=O)C(C(=O)NCC(=O)NCCOC(C)C)c1nc2cc(-c3ccn(C)c(=O)c3)c(F)cc2s1 (stereo not shown) [Example 353, 2-[6-fluoro-5-(1-methyl-2-oxo-1,2-dihydropyridin-4-yl)-1,3-benzothiazol-2-yl]-2-(2-methoxyethane-sulfonyl)-N-({[2-(propan-2-yloxy)ethyl]carbamoyl}methyl)acetamide]
16 | 64 | O=C(CNC(=O)C(c1nc2cc(F)c(-c3cnc(-n4cccn4)nc3)cc2s1)S(=O)(=O)CCC(F)(F)F)NC1CC1 (stereo not shown) [Example 584, N-[(cyclopropyl-carbamoyl)methyl]-2-{5-fluoro-6-[2-(1H-pyrazol-1-yl)pyrimidin-5-yl]-1,3-benzothiazol-2-yl}-2-(3,3,3-trifluoropropane-sulfonyl)acetamide]
17 | 198 | COCCS(=O)(=O)C(C(=O)NCC(=O)NCC(F)(F)F)c1nc2ccc(-c3ccc(F)nc3)cc2s1 (stereo not shown) [Example 378, 2-[6-(6-fluoropyridin-3-yl)-1,3-benzothiazol-2-yl]-2-(2-methoxyethane-sulfonyl)-N-{[(2,2,2-trifluoroethyl)carbamoyl]methyl} acetamide]
18 | 9 | COCCS(=O)(=O)C(C(=O)NCC(=O)NC1CC1)c1nc2cc(F)c(-c3ccc(-c4nnn(C)n4)cc3)cc2s1 (stereo not shown) [Example 593, N-[(cyclopropyl-carbamoyl)methyl]-2-{5-fluoro-6-[4-(2-methyl-2H-1,2,3,4-tetrazol-5-yl)phenyl]-1,3-benzothiazol-2-yl}-2-(2-methoxyethane-sulfonyl)acetamide]
19 | 18 | CS(=O)(=O)C(C(=O)NCC(=O)NC1CC1)c1nc2cc(OC(F)F)c(-c3ccc(F)nc3)cc2s1 (stereo not shown) [Example 602, N-[(cyclopropyl-carbamoyl)methyl]-2-[5-(difluoromethoxy)-6-(6-fluoropyridin-3-yl)-1,3-benzothiazol-2-yl]-2-methanesulfonyl-acetamide]
20 | 11 | CC(C)n1cc(-c2cc3nc(C(C(=O)NCC(=O)NC4CC4)S(=O)(=O)C(C)C)sc3cc2F)ccc1=O (stereo not shown) [Example 268, N-[(cyclopropyl-carbamoyl)methyl]-2-{6-fluoro-5-[6-oxo-1-(propan-2-yl)-1,6-dihydropyridin-3-yl]-1,3-benzothiazol-2-yl}-2-(propane-2-sulfonyl)acetamide]
21 | 31 | COCCS(=O)(=O)C(C(=O)NCC(=O)NC1CC1)c1nc2ccc(-c3cnnc(C)c3)cc2s1 (stereo not shown) [Example 292, N-[(cyclopropyl-carbamoyl)methyl]-2-(2-methoxyethane-sulfonyl)-2-[6-(6-methylpyridazin-4-yl)-1,3-benzothiazol-2-yl]acetamide]
22 | 1 | O=C(CNC(=O)C(c1nc2cc(F)c(-c3cccc(NC(=O)OCc4ccccc4)c3)cc2s1)S(=O)(=O)C1CC1)NC1CC1 (stereo not shown) [Example 555, benzyl N-(3-{2-[(cyclopropane-sulfonyl) ({[(cyclopropyl-carbamoyl)methyl]carbamoyl})methyl]-5-fluoro-1,3-benzothiazol-6-yl}phenyl) carbamate]
23 | 193 | O=C(CNC(=O)C(c1nc2ccc(-c3ccc(F)nc3)cc2s1)S(=O)(=O)c1cccnc1)NC1CC1 (stereo not shown) [Example 467, N-[(cyclopropyl-carbamoyl)methyl]-2-[6-(6-fluoropyridin-3-yl)-1,3-benzothiazol-2-yl]-2-(pyridine-3-sulfonyl) acetamide]
24 | 13 | CC(C)S(=O)(=O)C(C(=O)NCC(=O)NC1CC1)c1nc2cc(-c3ccc(C(=O)N4CCC4)cc3)c(F)cc2s1 (stereo not shown) [Example 277, 2-{5-[4-(azetidine-1-carbonyl)phenyl]-6-fluoro-1,3-benzothiazol-2-yl}-N-[(cyclopropyl-carbamoyl)methyl]-2-(propane-2-sulfonyl)acetamide]
25 | 28 | COCCS(=O)(=O)C(C(=O)NCC(=O)NC1(C)CCC1)c1nc2cc(-c3ccc(F)nc3)ccc2s1 (stereo not shown) [Example 387, 2-[5-(6-fluoropyridin-3-yl)-1,3-benzothiazol-2-yl]-2-(2-methoxyethane-sulfonyl)-N-{[(1-methylcyclobutyl)carbamoyl]methyl} acetamide]
26 | 67 | COCCS(=O)(=O)C(C(=O)NCC(=O)NC1CC1)c1nc2cc(F)c(-c3ccc(-c4nnnn4C)cc3)cc2s1 (stereo not shown) [Example 594, N-[(cyclopropyl-carbamoyl)methyl]-2-{5-fluoro-6-[4-(1-methyl-1H-1,2,3,4-tetrazol-5-yl)phenyl]-1,3-benzothiazol-2-yl}-2-(2-methoxyethane-sulfonyl)acetamide]
27 | 100 | CC(C)OCCNC(=O)CNC(=O)C(c1nc2ccc(-c3ccc(F)nc3)cc2s1)S(=O)(=O)c1ccc(F)cc1 (stereo not shown) [Example 455, 2-(4-fluorobenzene-sulfonyl)-2-[6-(6-fluoropyridin-3-yl)-1,3-benzothiazol-2-yl]-N-({[2-(propan-2-yloxy)ethyl]carbamoyl}methyl)acetamide]
28 | 1 | CS(=O)(=O)C(C(=O)NCC(=O)NC1CC1)c1nc2cc(F)c(-c3cccc(NC(=O)OCc4ccccc4)c3)cc2s1 (stereo not shown) [Example 550, benzyl N-{3-[2-({[(cyclopropyl-carbamoyl)methyl]carbamoyl} (methanesulfonyl)methyl)-5-fluoro-1,3-benzothiazol-6-yl]phenyl} carbamate]
